Literature values, collected in patent publication US8884000B2 (priority 2010, dated 2014).

Biological target: saporin-L1 (Saponaria officinalis, UniProt Q2QEH4)
Conditions: pH 7.8

Sequence of saporin-L1 (Q2QEH4 22-280 limits assumed): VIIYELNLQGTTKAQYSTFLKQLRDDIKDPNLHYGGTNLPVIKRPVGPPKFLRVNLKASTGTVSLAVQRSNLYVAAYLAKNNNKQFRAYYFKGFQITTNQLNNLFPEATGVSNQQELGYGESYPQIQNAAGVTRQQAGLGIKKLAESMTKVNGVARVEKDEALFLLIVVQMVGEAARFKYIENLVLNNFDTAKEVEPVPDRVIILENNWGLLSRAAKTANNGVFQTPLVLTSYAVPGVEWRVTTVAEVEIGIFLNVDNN

poly(A)
Km: 639 ± 32 µM
kcat: 61 ± 1 min⁻¹
